This assay relates to Gli1 transcript in Daoy cells (Shh signaling). Description: Functional assay for measuring the inhibition of Gli1 in Daoy cells (bDNA assay of Gli1 transcript after Shh-conditioned media stimulation). In kind it is cell-based. The note with it: Homo sapiens; Daoy cells stimulated with Shh-CM, 24 hours incubation with compound, Gli1 bDNA luminescence. As to the method:
Biological activity is determined using a functional assay in Daoy neuronal cancer cells and measures levels of Gli1 ribonucleic acid via a bDNA (branched deoxyribonucleic acid) assay system (Panomics, Inc., Fremont, Calif.). Gli was originally discovered in a Glioblastoma cell line and encodes a zinc finger protein that is activated by Shh signaling. The maximum response is obtained by inducing Gli1 transcription in the Daoy cells with conditioned medium (human embryonic kidney, HEK-293 cells stably expressing recombinant Shh) for 24 hours and then measuring the amount of stimulated Gli1 transcript. […]
The bDNA assay system utilizes the technology of branched-chain DNA to allow amplification of a target ribonucleic acid (transcript). […] The addition of a chemilumigenic substrate during the amplification step allows for detection using luminescence. […]
Daoy cells are grown to confluency in tissue culture T225-flasks in Daoy growth media containing Minimum Essential Medium (MEM) plus 10% Fetal Bovine Serum (FBS) with […] non-essential amino acids and 1 mM sodium pyruvate. The cells are removed from the T225-flasks using trypsin ethylenediaminetetraacetic acid (EDTA), centrifuged, resuspended in media, and then counted. […]

The IC50 is the concentration at which inhibition is half-maximal.

Structures can show the parent of a compound that is named as a salt.

In the case of `Cc1c(-c2ccc(F)cc2)nnc(N2CCC(N(C)C(=O)[C@@H]3CCCCN3)CC2)c1C` [Example 34, (S)-N-(1-(6-(4-Fluorophenyl)-4,5-dimethylpyridazin-3-yl)piperidin-4-yl)-N-methylpiperidine-2-carboxamide dihydrochloride], the half-inhibitory concentration (IC50) is approximately 1.22 nM.
With `Cc1c(-c2ccc(C#N)cc2)nnc(N2CCC(N(C)C(=O)c3cccnc3C(F)(F)F)CC2)c1C` [Example 14, N-(1-(6-(4-Cyanophenyl)-4,5-dimethylpyridazin-3-yl)piperidin-4-yl)-N-methyl-2-(trifluoromethyl)nicotinamide dihydrochloride] the figure was approximately 1.27 nM.

The values above are taken from patent US8507490B2, “Tetrasubstituted pyridazine hedgehog pathway antagonists” (Eli Lilly and Company, priority 2008, dated 2013).
